Test [1] concerns the target 5-hydroxytryptamine receptor 7 (Homo sapiens, UniProt P34969). The experiment in a line: PDSP Secondary Binding target: HTR7 - Compounds are tested at 10 uM concentration, plate are incubated at room temperature in the dark for 90 minutes. Reaction are stopped by vacuum filtration onto 0.3% polyethyleneimine soaked filter mats using Filtermate harvester. Scintillation cocktail is then melted onto microwave-dried filters on a hot plate and the radio activity is counted in Microbia counter.

For test [2], the target named is Sodium-dependent noradrenaline transporter (Homo sapiens, UniProt P23975). The experiment in a line: PDSP Secondary Binding target: SLC6A2 - Compounds are tested at 10 uM concentration, plate are incubated at room temperature in the dark for 90 minutes. Reaction are stopped by vacuum filtration onto 0.3% polyethyleneimine soaked filter mats using Filtermate harvester. Scintillation cocktail is then melted onto microwave-dried filters on a hot plate and the radio activity is counted in Microbia counter.

The target of test [3] is T1, 5-hydroxytryptamine receptor 2C (Homo sapiens, UniProt P28335).
T1 sequence (P28335 whole entry): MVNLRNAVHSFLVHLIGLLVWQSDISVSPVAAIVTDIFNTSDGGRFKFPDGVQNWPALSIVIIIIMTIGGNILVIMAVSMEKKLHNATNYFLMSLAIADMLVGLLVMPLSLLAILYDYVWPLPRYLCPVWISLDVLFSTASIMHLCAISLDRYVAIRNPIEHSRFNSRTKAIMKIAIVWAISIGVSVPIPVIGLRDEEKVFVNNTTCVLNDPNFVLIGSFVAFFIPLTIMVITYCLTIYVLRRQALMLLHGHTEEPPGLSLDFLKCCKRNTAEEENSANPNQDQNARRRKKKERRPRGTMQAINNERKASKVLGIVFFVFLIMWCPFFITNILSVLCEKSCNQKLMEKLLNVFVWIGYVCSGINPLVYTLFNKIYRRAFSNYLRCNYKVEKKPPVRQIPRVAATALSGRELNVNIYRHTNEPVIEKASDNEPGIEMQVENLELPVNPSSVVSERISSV
The experiment in a line: PDSP Secondary Binding target: HTR2C - Compounds are tested at 10 uM concentration, plate are incubated at room temperature in the dark for 90 minutes. Reaction are stopped by vacuum filtration onto 0.3% polyethyleneimine soaked filter mats using Filtermate harvester. Scintillation cocktail is then melted onto microwave-dried filters on a hot plate and the radio activity is counted in Microbia counter.

In test [4] the target is 5-hydroxytryptamine receptor 1B (Homo sapiens, UniProt P28222). The experiment in a line: PDSP Secondary Binding target: HTR1B - Compounds are tested at 10 uM concentration, plate are incubated at room temperature in the dark for 90 minutes. Reaction are stopped by vacuum filtration onto 0.3% polyethyleneimine soaked filter mats using Filtermate harvester. Scintillation cocktail is then melted onto microwave-dried filters on a hot plate and the radio activity is counted in Microbia counter.

Test [5] deals with Histamine H1 receptor (Homo sapiens, UniProt P35367). The test can be described thus: PDSP Secondary Binding target: HRH1 - Compounds are tested at 10 uM concentration, plate are incubated at room temperature in the dark for 90 minutes. Reaction are stopped by vacuum filtration onto 0.3% polyethyleneimine soaked filter mats using Filtermate harvester. Scintillation cocktail is then melted onto microwave-dried filters on a hot plate and the radio activity is counted in Microbia counter.

Test [6] addresses T2, Alpha-2C adrenergic receptor (Homo sapiens, UniProt P18825).
T2 sequence (P18825 whole entry): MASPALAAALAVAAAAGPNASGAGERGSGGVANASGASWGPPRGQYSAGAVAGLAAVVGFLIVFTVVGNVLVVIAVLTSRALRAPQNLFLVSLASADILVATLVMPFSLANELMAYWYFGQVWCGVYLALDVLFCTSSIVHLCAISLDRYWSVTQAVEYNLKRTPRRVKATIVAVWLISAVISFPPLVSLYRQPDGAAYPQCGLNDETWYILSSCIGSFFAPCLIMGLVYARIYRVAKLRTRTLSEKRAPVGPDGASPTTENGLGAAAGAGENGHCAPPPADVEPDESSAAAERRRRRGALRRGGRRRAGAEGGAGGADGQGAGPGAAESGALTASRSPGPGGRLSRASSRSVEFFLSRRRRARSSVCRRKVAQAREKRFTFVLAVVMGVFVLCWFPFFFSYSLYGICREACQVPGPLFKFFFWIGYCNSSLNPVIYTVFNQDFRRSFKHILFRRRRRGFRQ
The experiment in a line: PDSP Secondary Binding target: ADRA2C - Compounds are tested at 10 uM concentration, plate are incubated at room temperature in the dark for 90 minutes. Reaction are stopped by vacuum filtration onto 0.3% polyethyleneimine soaked filter mats using Filtermate harvester. Scintillation cocktail is then melted onto microwave-dried filters on a hot plate and the radio activity is counted in Microbia counter.

The target of test [7] is 5-hydroxytryptamine receptor 1D (Homo sapiens, UniProt P28221). The experiment in a line: PDSP Secondary Binding target: HTR1D - Compounds are tested at 10 uM concentration, plate are incubated at room temperature in the dark for 90 minutes. Reaction are stopped by vacuum filtration onto 0.3% polyethyleneimine soaked filter mats using Filtermate harvester. Scintillation cocktail is then melted onto microwave-dried filters on a hot plate and the radio activity is counted in Microbia counter.

The target in test [8] is 5-hydroxytryptamine receptor 2B (Homo sapiens, UniProt P41595). The test can be described thus: PDSP Secondary Binding target: HTR2B - Compounds are tested at 10 uM concentration, plate are incubated at room temperature in the dark for 90 minutes. Reaction are stopped by vacuum filtration onto 0.3% polyethyleneimine soaked filter mats using Filtermate harvester. Scintillation cocktail is then melted onto microwave-dried filters on a hot plate and the radio activity is counted in Microbia counter.

Test [9] addresses T3, Alpha-2B adrenergic receptor (Homo sapiens, UniProt P18089).
T3 sequence (P18089 whole entry): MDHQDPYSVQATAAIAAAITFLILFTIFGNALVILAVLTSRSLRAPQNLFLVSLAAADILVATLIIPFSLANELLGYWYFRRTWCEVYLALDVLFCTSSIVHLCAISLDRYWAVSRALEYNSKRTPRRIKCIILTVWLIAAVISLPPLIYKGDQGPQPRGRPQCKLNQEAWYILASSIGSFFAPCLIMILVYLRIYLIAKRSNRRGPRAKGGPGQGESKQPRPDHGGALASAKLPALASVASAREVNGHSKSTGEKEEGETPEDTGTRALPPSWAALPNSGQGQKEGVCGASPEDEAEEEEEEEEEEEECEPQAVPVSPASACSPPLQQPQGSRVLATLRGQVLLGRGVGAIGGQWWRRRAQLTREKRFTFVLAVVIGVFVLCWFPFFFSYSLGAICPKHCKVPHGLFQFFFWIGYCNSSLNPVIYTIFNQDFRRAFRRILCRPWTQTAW
The experiment in a line: PDSP Secondary Binding target: ADRA2B - Compounds are tested at 10 uM concentration, plate are incubated at room temperature in the dark for 90 minutes. Reaction are stopped by vacuum filtration onto 0.3% polyethyleneimine soaked filter mats using Filtermate harvester. Scintillation cocktail is then melted onto microwave-dried filters on a hot plate and the radio activity is counted in Microbia counter.

These results are taken from ChEMBL document CHEMBL5442175, “EUbOPEN Chemogenomics Library - PDSP Secondary Binding” (2024).

Counter-ions that a name gives are not always drawn.

Sequence of 5-hydroxytryptamine receptor 7 (P34969 whole entry): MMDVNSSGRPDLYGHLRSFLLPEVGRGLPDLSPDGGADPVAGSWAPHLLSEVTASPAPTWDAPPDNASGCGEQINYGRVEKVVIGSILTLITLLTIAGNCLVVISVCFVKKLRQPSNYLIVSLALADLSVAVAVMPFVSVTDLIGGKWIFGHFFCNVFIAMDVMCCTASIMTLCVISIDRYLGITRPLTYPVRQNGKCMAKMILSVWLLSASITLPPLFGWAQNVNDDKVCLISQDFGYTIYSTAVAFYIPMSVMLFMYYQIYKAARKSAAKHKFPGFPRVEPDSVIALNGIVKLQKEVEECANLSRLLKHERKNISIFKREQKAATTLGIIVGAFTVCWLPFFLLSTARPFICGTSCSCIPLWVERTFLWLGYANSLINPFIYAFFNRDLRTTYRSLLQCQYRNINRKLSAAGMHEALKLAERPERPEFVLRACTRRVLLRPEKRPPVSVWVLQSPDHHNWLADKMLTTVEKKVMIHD
Sequence of Sodium-dependent noradrenaline transporter (P23975 whole entry): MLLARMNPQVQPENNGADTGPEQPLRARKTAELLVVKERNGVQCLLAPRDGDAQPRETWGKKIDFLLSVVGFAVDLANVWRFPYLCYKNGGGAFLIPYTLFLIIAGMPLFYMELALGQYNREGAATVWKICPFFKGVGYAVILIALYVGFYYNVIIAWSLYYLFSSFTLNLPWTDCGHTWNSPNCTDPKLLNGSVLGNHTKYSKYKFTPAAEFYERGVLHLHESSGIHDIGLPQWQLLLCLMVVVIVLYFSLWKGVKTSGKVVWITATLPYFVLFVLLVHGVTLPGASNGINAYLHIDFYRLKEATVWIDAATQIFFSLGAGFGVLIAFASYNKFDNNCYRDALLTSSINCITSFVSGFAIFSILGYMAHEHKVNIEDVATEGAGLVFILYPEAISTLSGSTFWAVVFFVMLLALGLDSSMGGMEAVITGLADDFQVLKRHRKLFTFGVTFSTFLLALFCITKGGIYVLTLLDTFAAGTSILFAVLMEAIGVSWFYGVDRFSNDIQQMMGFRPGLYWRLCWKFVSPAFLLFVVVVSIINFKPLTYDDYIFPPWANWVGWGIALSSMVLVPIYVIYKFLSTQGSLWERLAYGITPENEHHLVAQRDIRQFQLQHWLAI
Sequence of 5-hydroxytryptamine receptor 1D (P28221 whole entry): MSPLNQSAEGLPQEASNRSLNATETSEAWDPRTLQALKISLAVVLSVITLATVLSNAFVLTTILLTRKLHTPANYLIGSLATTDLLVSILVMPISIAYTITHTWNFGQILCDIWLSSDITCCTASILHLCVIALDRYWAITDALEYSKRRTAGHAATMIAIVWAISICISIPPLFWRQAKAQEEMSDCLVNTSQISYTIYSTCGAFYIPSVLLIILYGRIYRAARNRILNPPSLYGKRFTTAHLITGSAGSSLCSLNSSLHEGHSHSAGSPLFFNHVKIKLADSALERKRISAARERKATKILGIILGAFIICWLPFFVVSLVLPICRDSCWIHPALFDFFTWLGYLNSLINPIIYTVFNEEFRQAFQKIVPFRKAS
Sequence of 5-hydroxytryptamine receptor 1B (P28222 whole entry): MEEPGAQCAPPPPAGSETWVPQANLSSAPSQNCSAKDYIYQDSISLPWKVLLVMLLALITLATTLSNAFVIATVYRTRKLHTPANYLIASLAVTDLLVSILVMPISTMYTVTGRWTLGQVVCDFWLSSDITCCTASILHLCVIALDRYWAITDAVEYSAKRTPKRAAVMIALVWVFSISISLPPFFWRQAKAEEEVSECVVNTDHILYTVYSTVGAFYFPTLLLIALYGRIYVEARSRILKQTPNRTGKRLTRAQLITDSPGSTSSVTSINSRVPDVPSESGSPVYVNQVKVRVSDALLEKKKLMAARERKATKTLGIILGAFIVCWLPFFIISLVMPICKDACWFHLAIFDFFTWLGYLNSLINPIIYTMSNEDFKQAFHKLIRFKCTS
Sequence of Histamine H1 receptor (P35367 whole entry): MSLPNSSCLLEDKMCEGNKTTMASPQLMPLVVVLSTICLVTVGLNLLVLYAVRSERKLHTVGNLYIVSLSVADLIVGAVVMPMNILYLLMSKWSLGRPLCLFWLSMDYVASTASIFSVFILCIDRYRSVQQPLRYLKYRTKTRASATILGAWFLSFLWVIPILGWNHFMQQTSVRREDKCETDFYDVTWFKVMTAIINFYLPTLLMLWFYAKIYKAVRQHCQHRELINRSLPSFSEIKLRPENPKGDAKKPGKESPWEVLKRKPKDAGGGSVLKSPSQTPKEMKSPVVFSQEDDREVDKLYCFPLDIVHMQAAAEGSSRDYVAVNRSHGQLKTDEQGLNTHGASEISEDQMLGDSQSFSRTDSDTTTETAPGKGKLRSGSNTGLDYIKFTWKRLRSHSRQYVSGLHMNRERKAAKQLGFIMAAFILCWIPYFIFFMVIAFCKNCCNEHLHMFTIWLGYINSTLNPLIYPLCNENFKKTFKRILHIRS
Sequence of 5-hydroxytryptamine receptor 2B (P41595 whole entry): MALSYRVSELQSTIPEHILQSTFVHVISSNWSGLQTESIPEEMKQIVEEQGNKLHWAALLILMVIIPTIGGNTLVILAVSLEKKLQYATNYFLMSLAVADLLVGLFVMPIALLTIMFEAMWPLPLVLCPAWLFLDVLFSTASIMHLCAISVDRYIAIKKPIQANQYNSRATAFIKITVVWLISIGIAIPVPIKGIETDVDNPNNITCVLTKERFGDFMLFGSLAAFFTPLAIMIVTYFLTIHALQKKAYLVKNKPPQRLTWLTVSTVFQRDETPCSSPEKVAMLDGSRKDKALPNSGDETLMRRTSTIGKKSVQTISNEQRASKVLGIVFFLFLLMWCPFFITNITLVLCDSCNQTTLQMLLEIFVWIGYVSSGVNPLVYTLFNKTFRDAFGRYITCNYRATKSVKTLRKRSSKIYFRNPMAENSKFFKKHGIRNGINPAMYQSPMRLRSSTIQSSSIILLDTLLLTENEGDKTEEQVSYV

As to `COC(=O)C1=C(C)NC(C)=C(C(=O)OCCCN2CCC(c3ccccc3)(c3ccccc3)CC2)[C@H]1c1cccc([N+](=O)[O-])c1` [NIGULDIPINE], the Ki – broadly, a dissociation constant, usually derived from enzyme kinetics or from competition with a known ligand – in [1] was determined as 313 nM; in test [2], 857 nM; in [3], 1850 nM; in test [4], 366 nM; in test [5], 89.7 nM.

Regarding `N#Cc1ccc2[nH]cc(CCCCN3CCN(c4ccc5oc(C(N)=O)cc5c4)CC3)c2c1` [VILAZODONE HYDROCHLORIDE], the Ki in test [6] is 1380 nM; in [1], 794 nM; in [7] it was 369 nM; in test [2], 15.5 nM; in test [8], 65 nM; in [4] it was 1240 nM. Also, the Ki in [5] came to 364 nM.

Regarding `O=c1ccc2ccc(OCCCCN3CCN(c4cccc5sccc45)CC3)cc2[nH]1` [BREXPIPRAZOLE], the Ki in test [6] is 59.9 nM; in test [1], 30.4 nM; in test [7], 24 nM; in test [2] it was 689 nM; in test [3], 60.5 nM; in test [9] it was 191 nM. Also, the Ki in test [4] came to 42.6 nM; in [5], 8.88 nM.

In the case of `CCc1nn(CCCN2CCN(c3cccc(Cl)c3)CC2)c(=O)n1CCOc1ccccc1` [NEFAZODONE HYDROCHLORIDE], the Ki in test [6] is 359 nM; in test [1] it was 70.2 nM; in test [7] it was 122 nM; in [9], 192 nM; in test [4], 262 nM; in test [5] it was 125 nM.

For the compound `Clc1cccc(COc2cncc(N3CCNCC3)n2)c1`, the Ki in test [1] came to 556 nM; in [7], 69.5 nM; in test [3], 9.45 nM; in test [8], 9.94 nM; in test [4], 1660 nM; in test [5], 1450 nM.

As to `Cc1nc2sccn2c(=O)c1CCN1CCC(=C(c2ccc(F)cc2)c2ccc(F)cc2)CC1` [RITANSERIN], the Ki turned out to be 375 nM in test [6]; 47.3 nM in test [1]; 685 nM in test [2]; 4.09 nM in [3]; 655 nM in test [9]; 281 nM in test [4]. The compound further came in with a Ki in test [5] of 12.2 nM.

For `S=C(NCCCc1c[nH]cn1)NCCCN(Cc1ccc(Cl)c(Cl)c1)c1ccc(Br)cn1`, the Ki in test [6] was 536 nM; in test [1], 1540 nM; in [2], 618 nM; in test [3], 251 nM; in test [9], 512 nM; in test [4] it was 1040 nM. In addition, the Ki in test [5] stood at 649 nM.

Regarding `NCCc1cn(S(=O)(=O)c2c(Cl)nc3sccn23)c2ccccc12`, the Ki in test [1] is 1430 nM; in test [7] it was 216 nM; in test [2], 1260 nM; in test [4] it was 562 nM; in test [5], 1650 nM.

As to `C[C@H](Cc1cc2c(c(C(N)=O)c1)N(CCCO)CC2)NCCOc1ccccc1OCC(F)(F)F` [SILODOSIN], the Ki in [6] was found to be 360 nM; in [1] it was 480 nM; in test [7], 91.7 nM; in test [8], 2090 nM; in [9], 786 nM; in test [4], 373 nM. The affinity in [5] corresponds to a Ki of 3530 nM.
